# Legend:
# [1] = tested on: uptake of dopamine by the corpus striatum; assay: inhibition of uptake of labelled dopamine by rat corpus striatum homogenate (procedure of Coyle et al); assay type: biochemical; details: for Ratio Hypothalmus/Striatum: ratio of ID50 values, hypothalamus over striatum
# Procedure: (§1) Many compounds which are active in the central nervous system of mammals appear to inhibit the uptake of catecholamines by mammalian brain tissues. […] The compounds of the invention have the ability of selectively inhibiting the uptake of dopamine by the corpus striatum. This ability was measured by a test procedure following that of Coyle et al supra. Rat brain slices from the corpus striatum and hypothalamus are separately homogenized and incubated with predetermined amounts of labelled norepinephrine or dopamine and a compound of the invention. After a suitable incubation period the amount of labelled catecholamine taken up by the brain homogenate is determined.
# [2] = tested on: uptake of norepinephrine by the hypothalamus; assay: inhibition of uptake of labelled norepinephrine by rat hypothalamus homogenate (procedure of Coyle et al); assay type: biochemical
# Procedure: as §1
Compound,"inhibiting the uptake of dopamine, selectivity in words ([1]; dopamine versus norepinephrine uptake)",Ratio Hypothalmus/Striatum [1],"inhibiting the uptake of norepinephrine, in words [2]"
"c1ccc2c(c1)CCc1ccccc1C2=NCC1CC1 [Example 1, N-cyclopropylmethyl-10,11-dihydro-5H-dibenzo[a,d]cyclohepten-5-imine]",almost exclusive effect inhibiting the uptake of dopamine,20,without significantly inhibiting the uptake of norepinephrine
"c1ccc2c(c1)CCc1ccccc1C2=NC1CC1 [Example 2, N-Cyclopropyl-10,11-dihydro-5H-dibenzo[a,d]cyclohepten-5-imine]",,> 6,
"Clc1ccc2c(c1)C(=NCC1CC1)c1ccccc1CC2 [Example 4, 3-Chloro-N-cyclopropylmethyl-10,11-dihydro-5H-dibenzocyclohepten-5-imine]",,2,
"CC(C)=C1CC(CN=C2c3ccccc3CCc3ccccc32)C1 (stereo not shown) [Example 5, N-(3-Isopropylidenecyclobutylmethyl)-10,11-dihydro[a,d]cyclohepten-5-imine]",,1.25,
"CC(C)N=C1c2ccccc2CCc2ccccc21 [Isopropyl, reference compound]",,0.25,
